Assay results taken from patent US6730332B2, “Herbal composition having antiallergic properties and a process for the preparation thereof” (Natural Remedies Pvt. Ltd., priority 2000, dated 2004).
Values belong to the compound of their own block, whether it stands above or below them.

Legend:
mast cells = assay: mast cell stabilization bioassay; type: cell-based, rats
Excerpt: The present invention is based on our experience and knowledge about the usage of various herbs along with our in depth studies on traditional literature. For this project a number of plants and plant preparations were selected for detailed studies. The selected plants/extracts were then subjected to the mast cell stabilization bioassay. This bioassay has been reported to be one of the important tools in detecting the substances having antiallergic activity. In this context reference may be made to “Rajashekharan M. et al, J. Drug Dev., 1989, 2(3), 179-182.” Mast cells are basophilic cells in subcutaneous and connective tissue. They are found in large numbers in mesentery of rats and contain numerous membrane bounded granules, which contain strong pharmacologically active mediators such as histamine, SRS-A, Serotonin, bradykinin etc. The role of mast cells in pathogenesis of allergic disease has been well recognized. Mast cells contain receptors for Fc fragment of IgE antibodies. Therefore, IgE antibodies formed on exposure to antigen will combine with the mast cells. On subsequent re-exposure to the same antigen, there occurs an antigen antibody reaction which will initiate mast cell de-granulation in a similar manner as that of de-granulating agents like carbachol or the compound which is the condensation product of N-methyl-p-methoxyphenylamine with formaldehyde. […]

mouse paw edema = assay: Compound 48/80 induced mouse paw edema; type: in vivo, mice; details: 1 mg/kg mouse body weight, P<0.05
Protocol: Compound 48/80 (Condensation product of N-methyl-p-methoxyphenylamine with formaldehyde) was used to induce mouse paw edema in mice. In this context the reference may be made to Nair A M, Tamhankar C P and Saraf M N (1995) Indian drugs, 32(6), 277-282. The animals were treated with NR-A2 at doses of 175, 225 and 275 mg/kg body weight orally 30 days prior to the test. Standard group received Ketotifen in the dose of 1 mg/kg b.w.

[1] = test system: Freund's adjuvant induced paw edema; assay: Adjuvant induced arthritis; type: in vivo, albino wistar rats; details: standard, rats, P<0.05
Protocol: Freund's adjuvant is a mixture of dead mycobacterium finely ground in liquid paraffin at a concentration of 5 mg/ml. When injected in hind paw it produces an edema characterised as a bi-phasic response, which persists up to 21 days. The injection of Freund's adjuvant in rat hind paw produces conditions similar to rheumatoid arthritis, a delayed hypersensitivity reaction.
NR-A2 was administered to albino wistar rats orally at doses of 150, 250 and 350 mg to body weight for 30 days before and 21 days after injecting Freund's adjuvant. Paw volume was measured using plethesmograph.

systemic anaphylaxis = assay: Compound 48/80 induced systemic anaphylaxis in rats; type: in vivo; details: 10 mg/kg
Excerpt: The effect of NR-A2 in compound 48/80 (Condensation product of N-methyl-p-methoxyphenylamine with formaldehyde) induced systemic anaphylaxis was studied in rats. In this context the reference may be made to Y. M. Lee, Kim D. K, (1996) Journal of Ethnopharmacology, 54, 77-84. The animals were divided into five groups, one served as control, one standard and three groups for NR-A2. The standard (Prednisolone), NRA-2 & vehicle were given 30 days prior to intra-peritoneal administration of compound 48/80 (Condensation product of N-methyl-p-methoxyphenylamine with formaldehyde). The dose of Prednisolone was 10 mg/kg while those of NR-A2 were 150, 250, 350 mg/kg b.w. Number of deaths per group within one hour were calculated.

active paw anaphylaxis = assay: Active paw anaphylaxis in mice; type: in vivo; details: 14 mg/kg body weight, P<0.05
Protocol: Active paw anaphylaxis in mice was studied using egg albumin as the antigen adsorbed on aluminum hydroxide. In this context the reference may be made to Ghoosi R. B, Bhide M. B, (1981) Allergy Appl. Immunol., 15, 53. and Nair A. M. et al. (1995) Indian Drugs, 32(6), 277-282. The mice were dosed with NR-A2 at different doses orally in 0.5% CMC for 30 days. Prednisolone was taken as the standard. On 31st day they were sensitized with antigen, and the treatment continued. On 12^Th day after sensitization the animals were re-challenged with egg albumin in saline subcutaneously in plantar region of right hind paw while the contralateral paw received an equal volume of saline. Paw thickness was measured using pocket thickness gauge (Mitutoyo Manufacturing Co. Japan) 15 minutes after the challenge. The difference in paw thickness of right paw compared to the left paw, reflected the edema due to antigen-antibody reaction.

EC50, mast cell stabilizing activity (mast cells; selected prototypes (Table 2)): 3.66 µg/mL
SMILES: O=C([O-])c1cc(=O)c2c(OCC(O)COc3cccc4oc(C(=O)[O-])cc(=O)c34)cccc2o1.[Na+].[Na+] [Disodiumchromoglycate]
EC50 values (mast cells; mast cell stabilization assay, screening of plant extracts (Table 1)): 3.68 µg/mL

SMILES: CN1CCC(=C2c3ccccc3CC(=O)c3sccc32)CC1 [Ketotifen]
inhibition of paw edema (mouse paw edema): 64.22%

SMILES: C[C@]12C=CC(=O)C=C1CC[C@@H]1[C@@H]2[C@@H](O)C[C@@]2(C)[C@H]1CC[C@]2(O)C(=O)CO [Prednisolone]
inhibition of adjuvant paw edema [1]: 95.63%
inhibition of compound 48/80 induced anaphylaxis (deaths within one hour) (systemic anaphylaxis): 62.97%
inhibition of paw edema (active paw anaphylaxis): 74.03%
